Reference: patent publication US4255519A, “Glycerol oxidase and process for the production thereof” (priority 1978, dated 1981)

tested on: glycerol oxidase II; assay: Inhibitors of enzyme: activity with 1 mM inhibitor, oxygen consumption rate by Warburg's manometer; format: biochemical, Penicillium sp. KY 868; conditions: activity with no inhibitor defined as 100, from oxygen consumption rate
Procedure: Enzymes activities obtained by adding 1 mM of various inhibitors are shown in Table 1, the activity of the enzyme with no addition of the inhibitor being defined as 100. The activities are calculated from consumption rate of oxygen used in reaction measured by Warburg's manometer.

Compound	Relative rate (%)
Cc1ccc2ccc3ccc(C)nc3c2n1 [Neocuproine]	80.3
O=C(O)c1cc[c]([Hg][Cl])cc1 [p-Chloromercuri benzoate]	81.4
O=C(O)CN(CCN(CC(=O)O)CC(=O)O)CC(=O)O [EDTA]	82.8
O=S(=O)([O-])[O-].[Fe+2] [FeSO4]	0
[Cl][Hg][Cl] [HgCl2]	79.0
c1cnc2c(c1)ccc1cccnc12 [o-Phenanthroline]	65.5
O=[N+]([O-])[O-].[Ag+] [AgNO3]	0
[Cl-].[Cl-].[Zn+2] [ZnCl2]	84.3
NO [NH2 OH]	0
c1ccc(-c2ccccn2)nc1 [α,α'-Dipyridyl]	75.7
CC(=O)[O-].CC(=O)[O-].[Pb+2] [Pb(CH3 COO)2]	26.3
CCN(CC)C(=S)S [Diethyl dithiocarbamate]	0

tested on: glycerol oxidase II; assay: Substrate specificity, relative activity by 4-AA method; format: biochemical, Penicillium sp. KY 868; conditions: not given
Procedure: The relative activity is measured using other substrates in equimolar amounts to that of glycerol in the procedure for measuring the activity according to 4-AA method.
The relative activities on other substrates are given in Table 3, the activity on glycerol being defined as 100.
The enzyme activity is expressed by "unit." A "unit" of the enzyme activity is defined as that amount of enzyme which will decompose 1 μ mole of glycerol at 37° C. in 1 minute in the presence of oxygen. The determination of the enzyme activity is carried out as follows: glycerol is reacted with glycerol oxidase II with stirring to form hydrogen peroxide, and 4-aminoantipyrine and phenol are reacted with the resulting hydrogen peroxide in the presence of peroxidase to derive quinoneimine pigment. The optical density in the visible portion of the resulting quinoneimine pigment is measured to determine the amount of generated hydrogen peroxide, whereby the enzyme activity is determined (which will be hereinafter referred to as "4-AA method").
The reagents (1)-(6) are mixed in a test tube, and then shaken at 37° C. for 5 minutes. Then, enzyme solution is added thereto, and thus obtained mixture is made up to 3 ml with TES buffer solution. Reaction is carried out at 37° C. for 10 minutes with shaking. On the other hand, similar procedure is repeated using water in place of the test solution as a reference. The optical density of the reaction solution at 500 nm is measured, and a difference from the control is determined as ΔOD (optical density).

Compound	Substrate specificity (in words)
OCC(O)CO [Glycerol]	reacts specifically
O=C(CO)CO [Dihydroxyacetone]	reacts specifically

same assay, conditions: substrate equimolar to glycerol; activity on glycerol defined as 100; 4-AA method

Compound	Relative activity
CC(O)C(C)O (stereo not shown) [2,3-Butanediol]	16
CCCCO [n-Butyl alcohol]	7
OCC(O)CO [Glycerol]	100
OCCCO [1,3-Propanediol]	23
CC(O)CCO (stereo not shown) [1,3-Butanediol]	11
O=C(CO)CO [Dihydroxyacetone]	293
CC(O)CO (stereo not shown) [1,2-Propanediol]	11
CCCO [n-Propyl alcohol]	11
OCCCCO [1,4-Butanediol]	11
O=P(O)(O)OCC(O)CO (stereo not shown) [Glycerol-3-phosphoric acid]	12
CCO [Ethanol]	11
CCC(C)O (stereo not shown) [sec-Butyl alcohol]	9
CC(C)O [iso-Propyl alcohol]	23
CC(C)CO [iso-Butyl alcohol]	14

tested on: glycerol oxidase II; assay: Substrate affinity: Michaelis constant against glycerol; format: biochemical, Penicillium sp. KY 868; conditions: glycerol oxidase II of the genus Penicillium
From the text: *Determination of Michaelis constant is described in the following reference. H. Lineweaver and D. Burk, J. Amer. Chem. Soc., 56, 658 (1934).

Compound	Km [mM]
OCC(O)CO [Glycerol]	8

tested on: glycerol oxidase I; assay: not given; conditions: glycerol oxidase I of Aspergillus japonicus (U.S. application Ser. No. 897,695); cited from earlier work

Compound	Km [mM]
OCC(O)CO [Glycerol]	18.5

tested on: glycerol oxidase I; assay: not given; conditions: glycerol oxidase I of Neurospora crassa (U.S. application Ser. No. 897,695); cited from earlier work

Compound	Km [mM]
OCC(O)CO [Glycerol]	19
